{"source": "ChEMBL document CHEMBL1201862", "about": "“PubChem BioAssay data set” (2004)", "key": {"[1]": {"tested_on": "HEK293", "experiment": "cells", "assay_type": "functional, cell-based", "settings": "Homo sapiens"}, "[2]": {"target": "Nucleotide-binding oligomerization domain-containing protein 2 (Homo sapiens, UniProt Q9HC29)", "experiment": "NOD2 signaling inhibitors, cell-based, luminescence, uHTS, HEK293 (AID 1566)", "assay_type": "functional"}, "[3]": {"tested_on": "HEK293", "experiment": "cells", "assay_type": "functional, cell-based", "settings": "Homo sapiens", "remark": "listed apart in the source"}, "[4]": {"tested_on": "HEK293", "experiment": "NOD2 signaling inhibitors in MDP-stimulated cells, cell-based, uHTS, luminescence (AID 2001)", "assay_type": "functional", "settings": "Homo sapiens"}, "[5]": {"tested_on": "HEK293", "experiment": "NOD1 signaling inhibitors, primary screen, cell-based, luminescence, uHTS (AID 1578)", "assay_type": "functional", "settings": "Homo sapiens"}, "[6]": {"tested_on": "HEK293", "experiment": "cells", "assay_type": "functional, cell-based", "settings": "Homo sapiens", "remark": "listed apart in the source"}, "[7]": {"target": "T1, Coagulation factor XII (Homo sapiens, UniProt P00748)", "T1 sequence (P00748 whole entry)": "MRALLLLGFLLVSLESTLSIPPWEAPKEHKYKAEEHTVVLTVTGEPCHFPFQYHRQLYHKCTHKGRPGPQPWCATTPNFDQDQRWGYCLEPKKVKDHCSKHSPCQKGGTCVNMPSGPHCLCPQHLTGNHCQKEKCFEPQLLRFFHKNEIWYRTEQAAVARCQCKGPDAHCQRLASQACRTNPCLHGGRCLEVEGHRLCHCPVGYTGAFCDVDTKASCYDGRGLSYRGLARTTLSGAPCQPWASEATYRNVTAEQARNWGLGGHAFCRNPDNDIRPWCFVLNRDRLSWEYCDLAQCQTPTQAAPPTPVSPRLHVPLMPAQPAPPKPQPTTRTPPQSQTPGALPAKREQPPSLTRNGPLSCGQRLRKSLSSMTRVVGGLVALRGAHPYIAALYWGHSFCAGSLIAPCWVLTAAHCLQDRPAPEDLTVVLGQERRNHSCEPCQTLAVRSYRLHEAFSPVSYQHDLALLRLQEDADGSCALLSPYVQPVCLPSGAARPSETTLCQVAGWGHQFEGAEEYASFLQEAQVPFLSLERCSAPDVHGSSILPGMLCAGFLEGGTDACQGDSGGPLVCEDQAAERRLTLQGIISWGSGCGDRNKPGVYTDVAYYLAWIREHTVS", "assay_type": "functional"}, "[8]": {"target": "Troponin, cardiac muscle (Homo sapiens, UniProt P19429+P45379+P63316)", "experiment": "Fluorescence-based biochemical high throughput dose response assay for activators of the calcium sensitivity of cardiac Regulated Thin Filaments (RTF). [Related pubchem assays (depositor defined):AID493008, AID493018, AID504382, AID504383]", "assay_type": "protein-complex assay"}, "[9]": {"target": "T1, Coagulation factor XII", "experiment": "FXIIa inhibitor potency, concentration-response, biochemical (AID 716)", "assay_type": "functional"}, "[10]": {"target": "T2, Mannose-6-phosphate isomerase (Homo sapiens, UniProt P34949)", "T2 sequence (P34949 whole entry)": "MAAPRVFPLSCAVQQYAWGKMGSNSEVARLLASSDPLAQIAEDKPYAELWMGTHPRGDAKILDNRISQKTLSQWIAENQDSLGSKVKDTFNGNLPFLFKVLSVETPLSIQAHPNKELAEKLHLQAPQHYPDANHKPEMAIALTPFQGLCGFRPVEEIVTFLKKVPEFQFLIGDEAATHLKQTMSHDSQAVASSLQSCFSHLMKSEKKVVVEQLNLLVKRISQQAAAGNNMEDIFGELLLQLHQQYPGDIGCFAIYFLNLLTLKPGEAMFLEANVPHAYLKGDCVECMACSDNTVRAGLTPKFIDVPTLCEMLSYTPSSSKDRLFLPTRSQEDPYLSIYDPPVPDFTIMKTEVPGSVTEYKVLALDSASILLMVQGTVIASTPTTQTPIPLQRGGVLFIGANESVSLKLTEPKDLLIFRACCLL", "experiment": "human PMI inhibitors, high substrate, primary screen, biochemical, fluorescence intensity, high mannose 6-phosphate (AID 1220)"}, "[11]": {"target": "Hexokinase (Trypanosoma brucei, UniProt Q38C41)", "experiment": "Confirmation assay for inhibitors of Trypanosoma brucei hexokinase 1-Analogue-first series. [Related pubchem assays (depositor defined):AID1430, AID1632, AID2516, AID2560, AID2579, AID2600, AID449725, AID492951]", "assay_type": "functional"}}, "note": "Active and inactive are the calls of the source.", "data": [{"smiles": "COc1cc2c(cc1OC)C(c1ccc(-c3cc(Cl)ccc3Cl)o1)=NCC2", "values": [{"measurement": "IC50", "setting": "[1]", "value": "5.36 µM (active)"}, {"measurement": "EC50", "setting": "[2]", "value": "> 20 µM (inactive)"}, {"measurement": "IC50", "setting": "[3]", "value": "> 20 µM (inactive)"}, {"measurement": "IC50", "setting": "[4]", "value": "2.75 µM (active)"}, {"measurement": "EC50", "setting": "[5]", "value": "> 20 µM (inactive)"}, {"measurement": "IC50", "setting": "[6]", "value": "> 20 µM (inactive)"}]}, {"smiles": "CC12CCC(C(=O)NC(c3ccccc3)c3ccccc3)(OC1=O)C2(C)C", "note": "(stereo unspecified)", "values": [{"measurement": "IC50", "setting": "[7]", "value": "> 50 µM (inactive)"}]}, {"smiles": "COc1ccc(S(=O)(=O)N2CN(Cc3ccco3)c3nc4ccccc4nc32)cc1", "values": [{"measurement": "EC50", "setting": "[8]", "value": "> 71.5 µM (inactive)"}]}, {"smiles": "CN1CC2(Cc3c1ccc1ccccc31)C(=O)OC(C)(C)OC2=O", "values": [{"measurement": "IC50", "setting": "[9]", "value": "> 50 µM (inactive)"}, {"measurement": "IC50", "setting": "[10]", "value": "> 50 µM (not active)"}]}, {"smiles": "COc1ccc(C(=O)Nc2ccc(Cl)cc2C(=O)O)cc1", "values": [{"measurement": "IC50", "setting": "[11]", "value": "> 25 µM (inactive)"}]}]}
